Laboratory results published in patent publication US10969387B2, “Compounds, complexes, and methods useful for detecting and/or treating bacterial pathogens” (REGENTS OF THE UNIVERSITY OF MINNESOTA, priority 2015, dated 2021).

Assays:
FepA = FepA (Escherichia coli, UniProt P05825); conditions: Thulasiraman et al., J Bacteriol. 1998; cited from earlier work
E. coli [1] = conditions: Thulasiraman et al., J Bacteriol. 1998; cited from earlier work
E. coli [2] = experiment: Bacteria detection by fluorescence in T media (probe uptake), E. coli; type: cell-based; conditions: dye not conjugated to an enterobactin analogue; control experiment (FIG. 28)
Method: Sample Processing for Bacteria Detection by Fluorescence in T Media Experiments with Bacteria Genus
• 1. Bacteria is prepared • a. Sub bacteria onto blood agar and incubate overnight • b. Select several colonies and grow overnight in LB media at 37° C. in room air on orbital shaker • c. 100 μl of overnight culture is placed into 100 ml T media, incubated for 5 hours (E. coli, Salmonella, A. baumannii, Klebsiella pneumoniae) or 10 hours (B. subtillus, S. aureus) • d. Quantitate using 1:10 dilution and plating 100 μl of dilutions onto blood agar • 2. Prepare the samples in 1.5 microcentrifuge tubes, vortex, in triplicate • a. For each bacteria • i. 1 ml bacteria+25 μl Tris • ii. 1 ml bacteria+25 μl Probe • b. For each run include controls • i. 1 ml T media+25 μl Tris • ii. […] 24+ hours count colonies on quantitative cultures
The effect of probe chemical structure on response can be seen in FIG. 28 in an increase in fluorescence intensity after incubation of E. coli with Ga-TREN-CAM-C2-OG (example 1), Ga-TREN-GlyCAM-GluCAM-OG (example 2), Ga-3,3-LiCAM-GluCAM-OG (example 4), Ga-2,2-LiCAM-GluCAM (example 5), and the non-targeted dye OREGON GREEN dye. […]
The effect of metal ion on probe uptake can be seen in FIG. 29 in anincrease in fluorescence intensity after incubation of E. coli with Ga-3,3-LiCAM-GluCAM-OG, Fe-3,3-LiCAM-GluCAM, the apo probe, 3,3-LiCAM-GluCAM-OG, and the non-target OREGON GREEN dye. […]

FepA, sequence (P05825 23-746): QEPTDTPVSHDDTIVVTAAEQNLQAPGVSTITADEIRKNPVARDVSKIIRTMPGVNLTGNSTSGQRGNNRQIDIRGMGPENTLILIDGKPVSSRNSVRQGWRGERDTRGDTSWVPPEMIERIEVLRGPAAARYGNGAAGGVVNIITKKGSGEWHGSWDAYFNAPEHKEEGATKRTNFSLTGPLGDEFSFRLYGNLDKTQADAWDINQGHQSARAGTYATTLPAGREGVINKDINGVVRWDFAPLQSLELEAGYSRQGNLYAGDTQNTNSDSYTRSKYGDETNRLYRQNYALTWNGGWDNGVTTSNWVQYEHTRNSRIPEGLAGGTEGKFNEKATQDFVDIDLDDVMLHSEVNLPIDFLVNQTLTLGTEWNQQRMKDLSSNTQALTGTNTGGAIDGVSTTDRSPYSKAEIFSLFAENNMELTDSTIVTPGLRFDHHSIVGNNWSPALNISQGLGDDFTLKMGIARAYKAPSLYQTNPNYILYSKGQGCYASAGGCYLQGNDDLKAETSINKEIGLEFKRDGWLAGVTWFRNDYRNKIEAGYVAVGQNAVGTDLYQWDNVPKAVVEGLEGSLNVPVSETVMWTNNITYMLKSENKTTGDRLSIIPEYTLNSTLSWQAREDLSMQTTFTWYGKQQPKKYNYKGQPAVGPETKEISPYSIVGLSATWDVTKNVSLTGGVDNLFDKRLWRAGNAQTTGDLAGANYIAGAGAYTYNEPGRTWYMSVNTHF

O=C(NCCN(CCNC(=O)c1cccc(O)c1O)CCNC(=O)c1cccc(O)c1O)c1cccc(O)c1O [TREN-CAM]
recognition by FepA (FepA): recognized by FepA | uptake by E. coli (E. coli [1]): actively taken up by E. coli

OREGON GREEN
accumulation in bacteria (E. coli [2]): does not accumulate in bacteria
